From paper PMC9848286, “Design, synthesis, and biological investigation of oxadiazolyl, thiadiazolyl, and pyrimidinyl linked antipyrine derivatives as potential non-acidic anti-inflammatory agents” (Journal of Enzyme Inhibition and Medicinal Chemistry, 2023)

Tests used:
[1] = test system: carrageenan-induced paw edoema; assay: Carrageenan-induced rat paw edoema, paw swelling; type: in vivo; settings: rats, i.p. 1 h before carrageenan; CLX 30 mg/kg, 4b 36 mg/kg, 4c 40 mg/kg; 1-5 h
From the text: The anti-inflammatory activity of the two selected compounds from the above screening, 4b and 4c was scrutinized in vivo using a paw edema model produced by carrageenan. Male Sprague Dawley rats (180–200 g) were obtained from Vacsera (Giza, Egypt) and maintained at rtunfettered access to food and water in a light-controlled space with a twelve-hour light/dark cycle. The research ethics committee at Mansoura University, Egypt examined and authorized the experiments (code number: 2022–78).
(§1) After overnight fasting, five groups of rats were randomly divided (n = 5). Group I (Control): injected only with the DMSO solution (1.2 ml/kg, i.p, 10% v/v of DMSO in sterile 0.9% saline solution). Group II (Carrageenan): injected with carrageenan [0.1 ml of a freshly prepared solution of carrageenan (1% w/v in sterile 0.9% saline solution) into the sub-plantar region of the right hind paw] and the DSMO solution. Group III (CLX): injected the standard drug CLX (30 mg/kg, i.p, 2.5% w/v in the DMSO solution). Group IV (4 b) injected the test drug 4 b (36 mg/kg, i.p, 2% w/v in the vehicle). Group V (4c): injected the test drug 4c (40 mg/kg, i.p, 2% w/v in the DMSO solution). The selected doses of 4 b and 4c were equimolar to 30 mg/kg CLX. One hour after treatments, edema caused by carrageenan injection as described above. A digital vernier caliper (Elora, Germany) was used to measure the thickness of the paw right prior to injection of carrageenan and thereafter at 1, 2, 3, 4, and 5 h.
The paw edoema (E%) and edoema inhibition rate (I%) were calculated as follow: E%=B−A/A×100,
A: paw thickness (mm) just before carrageenan injection and B: paw thickness (mm) at different time intervals after carrageenan injection: I%=Ec−Et/Ec×100,
Ec: mean paw edoema of the carrageenan group and Et is the paw odema of the tested groups.

[2] = test system: carrageenan-injected rat paw tissue; assay: Histopathological (H&E) inflammation scoring of carrageenan-inflamed paw tissue; type: in vivo; settings: rat paw 5 h after carrageenan; CLX 30, 4b 36, 4c 40 mg/kg i.p.; significant (P < 0.05) only with CLX
Procedure: as §1
(§2) After five hours from carrageenan injection, the rats were euthanized using […] with removal of the inflamed paws. Tissues of rat hind-paw’s pad were collected, and 5-mm pieces were homogenised in iced phosphate buffer saline (pH 7.4) on ice. Next, the prepared homogenate was centrifuged (10,000 g, 15 min, 4 °C) and the obtained supernatant was collected for additional analysis. The remaining tissue was fixed in formalin (10% v/v) for 24 h after which it was inserted in paraffin wax.
(§3) Paraffinized tissue sections were dewaxed in xylene and mounted on slides then […] with hematoxylin-eosin (H&E) for histopathological evaluation of inflammation. Inflammation score from 0 to 5 was given as follows: 0,1,2,3,4, and 5 if there is no, mild, mild/moderate, moderate, moderate/severe, and severe inflammation, respectively.[48] […] Immunostained sections were scored as follows: 0,1, 2 and 3 if there is no, weak, moderate, and strong staining effect, respectively.[49]

NF-κB = assay: Immunohistochemistry of NF-κB p65 expression in paw tissue; type: in vivo; settings: rat paw 5 h after carrageenan; CLX 30, 4b 36, 4c 40 mg/kg i.p.; significant (P < 0.05) only with CLX
Procedure: as §1, §2, §3

COX-2 [3] = assay: Immunohistochemistry of COX-2 expression in paw tissue; type: in vivo; settings: rat paw 5 h after carrageenan; CLX 30, 4b 36, 4c 40 mg/kg i.p.
Procedure: After overnight fasting, five groups of rats were randomly divided (n = 5). Group I (Control): injected only with the DMSO solution (1.2 ml/kg, i.p, 10% v/v of DMSO in sterile 0.9% saline solution). Group II (Carrageenan): injected with carrageenan [0.1 ml of a freshly prepared solution of carrageenan (1% w/v in sterile 0.9% saline solution) into the sub-plantar region of the right hind paw] and the DSMO solution. […] One hour after treatments, edema caused by carrageenan injection as described above. A digital vernier caliper (Elora, Germany) was used to measure the thickness of the paw right prior to injection of carrageenan and thereafter at 1, 2, 3, 4, and 5 h.
After five hours from carrageenan injection, the rats were euthanized using surgical dislocation with removal of the inflamed paws. Tissues of rat hind-paw’s pad were collected, and 5-mm pieces were homogenised in iced phosphate buffer saline (pH 7.4) on ice. […]
The other set of sections were immunostained to examine expression levels of COX-2 and nuclear factor kappa B (NF-κB p65) using monoclonal antibodies (Thermo Fisher Scientific, MA, United States) and as per the guidelines provided by the manufacturer. Immunostained sections were scored as follows: 0,1, 2 and 3 if there is no, weak, moderate, and strong staining effect, respectively.[49]

PGE2 = PGE2 level in paw tissue homogenate (ELISA); type: in vivo, rat; settings: for PGE2 paw tissue level in comparison to the CLX group: P < 0.001; for PGE2 paw tissue level compared to the carrageenan group: rat paw 5 h after carrageenan, CLX 30, 4b 36, 4c 40 mg/kg i.p., P < 0.001, 0.05 and 0.001 respectively
Procedure: as §1, §2
(§4) Levels of prostaglandin E2 (PGE2) and tumour necrosis factor-alpha (TNF-α) were measured in paw tissue homogenate using ELISA kits (Cusabio Technology LLC, TX, United States) and as per the guidelines provided by the manufacturer.

TNF-α = TNF-α level in paw tissue homogenate (ELISA); type: in vivo, rat; settings: for TNF-α lowering effect compared with CLX: P < 0.01; for TNF-α paw tissue level compared to the carrageenan group: rat paw 5 h after carrageenan, CLX 30, 4b 36, 4c 40 mg/kg i.p., P < 0.001
Procedure: as §1, §2, §4

nitric oxide (NO) = assay: NO content in paw tissue homogenate (colorimetric kit); type: in vivo, rat; settings: for NO paw tissue content compared to CLX: P < 0.01
Procedure: as §1, §2
Contents of malondialdehyde (MDA) as a lipid peroxidation product, and nitric oxide (NO) as anitrosative product, were measured in paw tissue homogenate using colorimetric commercial kits (Biodiagnostic, Giza, Egypt) and as per the guidelines provided by the manufacturer.

COX-2 [4] = target: T1, COX-2 (Homo sapiens, UniProt P35354); assay: In vitro COX-2 inhibition, colorimetric screening assay kit; settings: for (SI) in vitro COX-2 selectivity index: COX-1 IC50/COX-2 IC50; for HillSlope (best-fit value), COX-2 inhibition / LogIC50 (best-fit value), COX-2 inhibition: supplementary dose-response curve
T1 sequence (P35354 18-604): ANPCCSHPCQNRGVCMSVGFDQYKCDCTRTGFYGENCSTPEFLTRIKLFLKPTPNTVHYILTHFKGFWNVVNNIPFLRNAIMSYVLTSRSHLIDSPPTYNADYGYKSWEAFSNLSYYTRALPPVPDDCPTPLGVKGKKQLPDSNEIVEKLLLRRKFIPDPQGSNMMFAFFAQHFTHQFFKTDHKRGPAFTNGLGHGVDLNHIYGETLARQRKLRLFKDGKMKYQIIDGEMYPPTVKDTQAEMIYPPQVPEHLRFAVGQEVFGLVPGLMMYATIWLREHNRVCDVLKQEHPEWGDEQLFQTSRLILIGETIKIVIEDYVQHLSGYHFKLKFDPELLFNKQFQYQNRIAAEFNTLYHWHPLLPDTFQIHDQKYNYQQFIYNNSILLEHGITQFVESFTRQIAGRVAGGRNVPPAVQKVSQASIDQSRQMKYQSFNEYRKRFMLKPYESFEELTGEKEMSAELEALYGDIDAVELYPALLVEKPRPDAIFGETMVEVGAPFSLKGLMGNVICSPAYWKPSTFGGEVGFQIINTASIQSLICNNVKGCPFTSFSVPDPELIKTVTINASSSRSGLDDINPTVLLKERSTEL
Procedure: (§5) This assay examined the inhibitory potency of the target structures towardboth COX isoforms via colorimetric screening assay kit (Cayman Chemical, MI, United States) based on the directions provided by the manufacturer. ELISA reader Thermo Scientific Multiskan® EX (Thermo scientific, United States) was used. […] Serial dilutions of CLX, as a reference standard, and tested compounds at concentrations of 1000, 300, 100, 30, 10, 3, 1, and 0.30 nM were used in the assay. IC50 of the tested compounds were determined using three different experiments. The selectivity (SI) of each ompound was measured using the COX-2/COX-1 ratio, which compares the IC50 of COX-2 and COX-1.

COX-1 = target: T2, COX-1 (Ovis aries, UniProt P05979); assay: In vitro COX-1 inhibition, colorimetric screening assay kit; settings: for HillSlope (best-fit value), COX-1 inhibition / LogIC50 (best-fit value), COX-1 inhibition: supplementary dose-response curve
T2 sequence (P05979 25-600): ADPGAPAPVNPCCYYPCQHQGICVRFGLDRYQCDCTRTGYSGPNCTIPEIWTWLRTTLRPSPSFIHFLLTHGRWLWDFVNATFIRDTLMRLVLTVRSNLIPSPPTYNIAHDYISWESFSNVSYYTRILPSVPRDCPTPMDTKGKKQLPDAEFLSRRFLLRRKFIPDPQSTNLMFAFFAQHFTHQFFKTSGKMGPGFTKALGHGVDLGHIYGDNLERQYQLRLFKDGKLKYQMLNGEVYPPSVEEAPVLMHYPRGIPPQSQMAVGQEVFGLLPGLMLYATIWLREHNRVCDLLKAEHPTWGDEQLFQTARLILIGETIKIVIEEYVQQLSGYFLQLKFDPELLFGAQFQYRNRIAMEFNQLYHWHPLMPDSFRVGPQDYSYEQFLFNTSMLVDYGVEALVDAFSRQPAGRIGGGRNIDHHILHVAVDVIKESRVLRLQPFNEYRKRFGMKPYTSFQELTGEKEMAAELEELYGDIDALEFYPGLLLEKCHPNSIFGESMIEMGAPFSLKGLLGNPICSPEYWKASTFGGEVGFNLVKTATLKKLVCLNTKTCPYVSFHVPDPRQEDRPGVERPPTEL
Procedure: as §5

[5] = set-up: method as in PMID 29426771, PMID 11600237, PMID 33266208, PMID 19084415, PMID 35423143; settings: Figure 1; cited from earlier work
COX-2 [6] = settings: printed in Figure 1, comparator of an unlabelled compound; cited from earlier work

melting point [°C]	IC50 (COX-2 [4]) [nM]	(SI) in vitro COX-2 selectivity index (COX-2 [4])	HillSlope (best-fit value), COX-2 inhibition (COX-2 [4])	LogIC50 (best-fit value), COX-2 inhibition (COX-2 [4])	IC50 (COX-1) [nM]	HillSlope (best-fit value), COX-1 inhibition (COX-1)	LogIC50 (best-fit value), COX-1 inhibition (COX-1)	Compound	percentage of paw swelling compared to the carrageenan group [1]	semi-quantitative inflammation score (H&E) compared to the carrageenan group [2]	NF-κB positive expression score compared to the carrageenan group (NF-κB)	COX-2 positive expression score compared to the carrageenan group (COX-2 [3])	PGE2 paw tissue level in comparison to the CLX group (PGE2)	PGE2 paw tissue level compared to the carrageenan group (PGE2)	TNF-α lowering effect compared with CLX (TNF-α)	TNF-α paw tissue level compared to the carrageenan group (TNF-α)	NO paw tissue content compared to CLX (nitric oxide (NO))	also measured
190 to 192	53.8 ± 2.05	4.44	-0.2859	1.730 Log (nM)	238.5 ± 2.08	-0.4124	2.378 Log (nM)	Cc1c(NC(=O)CSc2nnc(-c3ccc(Cl)cc3)o2)c(=O)n(-c2ccccc2)n1C [4b, 2-((5–(4-Chlorophenyl)-1,3,4-oxadiazol-2-yl)thio)-N-(1,5-dimethyl-3-oxo-2-phenyl-2,3-dihydro-1H-pyrazol-4-yl)acetamide]	marked lower percentages of paw swelling	decreased	decreased	decreased	higher levels	reduced	higher	decrease	higher	–
173 to 175	69.8 ± 2.14	1.86	-0.3652	1.844 Log (nM)	130 ± 2.3	-0.4106	2.112 Log (nM)	Cc1c(NC(=O)CSc2nnc(-c3ccc(Br)cc3)o2)c(=O)n(-c2ccccc2)n1C [4c, 2-((5–(4-Bromophenyl)-1,3,4-oxadiazol-2-yl)thio)-N-(1,5-dimethyl-3-oxo-2-phenyl-2,3-dihydro-1H-pyrazol-4-yl)acetamide]	marked lower percentages of paw swelling	decreased	decreased	decreased	higher levels	reduced	higher	decrease	lower	PGE2 paw tissue level compared to the 4b group (PGE2; P < 0.05): lower; NO paw tissue content compared to 4 b (nitric oxide (NO); P < 0.05): lower
–	–	–	–	–	–	–	–	Cc1ccc(-c2cc(C(F)(F)F)nn2-c2ccc(S(N)(=O)=O)cc2)cc1 [Celecoxib, reference compound]	marked lower percentages of paw swelling	decreased	decreased	–	–	reduced	–	decrease	–	–
–	–	–	–	–	–	–	–	CC(=O)Nc1nnc(SCC(=O)Nc2c(C)n(C)n(-c3ccccc3)c2=O)s1 [Compound A]	–	–	–	–	–	–	–	–	–	more active than diclofenac Na as antiinflammatory [5]: 46%
–	–	–	–	–	–	–	–	Cc1cnc(NC(=O)C2=C(O)c3ccccc3S(=O)(=O)N2C)s1 [Meloxicam]	–	–	–	–	–	–	–	–	–	% inhibition against COX-2 (COX-2 [6]): 44.95%
